Measurements reported in article PMC6792352, “Limited Chemical Structural Diversity Found to Modulate Thyroid Hormone Receptor in the Tox21 Chemical Library” (Environmental Health Perspectives, 2019).
Structures can show the parent of a compound that is named as a salt.

test: in vitro; settings: rat, gh3-tre-luc cells, AC50 (uM) modified / 1000

SMILES | CC50 at 24 h
O=C(Cn1ccnc1[N+](=O)[O-])NCc1ccccc1 [Benznidazole] | > 50 µM
CO[C@]12C[C@@H](COC(=O)c3cncc(Br)c3)CN(C)[C@@H]1Cc1cn(C)c3cccc2c13 [Nicergoline] | 16.4 µM
CC(=O)C(C)=O [2,3-Butanedione] | > 90 µM
C1=C\CC/C=C\CC/1 [1,5-Cyclooctadiene] | > 100 µM
NC(=O)NO [Hydroxyurea] | > 90 µM
COc1cc(C=O)cc2c1[C@H](COC(N)=O)[C@]1(OC(C)=O)ON2C[C@H]2[C@@H]1N2C(C)=O [PharmaGSID_48166] | 1.23 µM
COC(=O)c1ccccc1Cl [Methyl 2-chlorobenzoate] | > 90 µM
CCCCCCCCCCCCN(C)C [N,N-Dimethyldodecan-1-amine] | > 90 µM
CCC(=O)OC(C)c1ccccc1 (stereo not shown) [1-Phenylethyl propionate] | > 90 µM
CN(CC(=O)N1CCOCC1)Cc1c(Cl)cccc1NC(=O)c1ccccc1 [Fominoben hydrochloride] | > 50 µM
CCCC(C)C1(CC)C(=O)NC(=S)NC1=O (stereo not shown) [Thiopental sodium] | > 50 µM
CCN(CC)CC(=O)Nc1c(C)cc(C)cc1C [Trimecaine monohydrochloride] | > 50 µM
O=CC=O [Glyoxal] | > 90 µM
CC1CC(=O)CC(C)(C)C1 (stereo not shown) [3,3,5-Trimethylcyclohexanone] | > 90 µM
COC(=O)[C@H](c1ccccc1Cl)N1CCc2sccc2C1 [Clopidogrel hydrogen sulfate] | > 50 µM
CCOC(=O)OC1=C(c2cc(C)ccc2C)C(=O)N[C@]12CC[C@@H](OC)CC2 [Spirotetramat] | > 90 µM
O=P(O)(O)C(Sc1ccc(Cl)cc1)P(=O)(O)O [Tiludronate disodium] | > 50 µM
CN(C/C=C/C#CC(C)(C)C)Cc1cccc2ccccc12 [Terbinafine] | 38.3 µM
CNC[C@H](O)c1ccc(O)c(O)c1 [Epinephrine bitartrate] | > 90 µM
CCCCCCCCCC[N+](C)(C)CCCCCCCCCC [Didecyldimethylammonium chloride] | 10.7 µM
C[N+]1(CCCCC[N+]2(C)CCCC2)CCCC1 [Pentolinium ditartrate] | > 50 µM
COC(=O)N(C(=O)N1CO[C@@]2(C(=O)OC)Cc3cc(Cl)ccc3C2=N1)c1ccc(OC(F)(F)F)cc1 [Indoxacarb] | > 70 µM

SMILES | CC50 at 24 h
O=C1CC[C@@]2(O)[C@H]3Cc4ccc(O)c5c4[C@@]2(CCN3CC2CC2)[C@H]1O5 [Naltrexone] | > 50 µM
CC(O)COC(C)(C)C (stereo not shown) [1-tert-Butoxy-2-propanol] | > 90 µM
CCCCOC(=O)CCS [Butyl 3-mercaptopropionate] | > 90 µM
CCCOC(=O)c1ccc(N)cc1 [Risocaine] | > 50 µM
CC(C)OCC1CO1 (stereo not shown) [Isopropyl glycidyl ether] | > 90 µM
NNc1nc(-c2ccc([N+](=O)[O-])cc2)cs1 [2-Hydrazino-4-(4-nitrophenyl)thiazole] | 58.8 µM
C=CC(C)(C)CC(=O)OC [Methyl 3,3-dimethylpent-4-enoate] | > 90 µM
CN1CCN(c2c(F)cc3c(=O)c(C(=O)O)cn(CCF)c3c2F)CC1 [Fleroxacin] | > 50 µM
CC[C@H](C)C(=O)O[C@H]1CCC=C2C=C[C@H](C)[C@H](CC[C@@H]3C[C@@H](O)CC(=O)O3)[C@H]21 [Mevastatin] | > 50 µM
O=Cc1ccc(Cl)cc1 [4-Chlorobenzaldehyde] | > 90 µM
C[C@H]1C[C@H]2[C@@H]3CCC4=CC(=O)C=C[C@]4(C)[C@@]3(F)[C@@H](O)C[C@]2(C)[C@@]1(O)C(=O)CO [Betamethasone] | > 90 µM
Clc1ccc(C(Cl)(Cl)Cl)c(Cl)c1 [2,4-Dichloro-1-(trichloromethyl)benzene] | > 90 µM
C=C(C)C(=O)OCCCCCCOC(=O)C(=C)C [1,6-Hexanediol dimethacrylate] | > 90 µM
CCCC1C(=O)N2C(N(C)C)=Nc3ccc(C)cc3N2C1=O (stereo not shown) [Azapropazone] | > 20 µM
CC(C(=O)O)c1ccc(C(=O)c2cccs2)cc1 (stereo not shown) [Suprofen] | > 20 µM
COC(=O)CCC(=O)CN [Methyl aminolevulinate hydrochloride] | > 50 µM
N#CCCl [Chloroacetonitrile] | > 100 µM
N#Cc1ccccc1C#N [1,2-Benzenedicarbonitrile] | > 70 µM
CCCCOCCOCCOCCCC [Diethylene glycol dibutyl ether] | > 90 µM
CO[Si](CCCNCCC[Si](OC)(OC)OC)(OC)OC [3-(Trimethoxysilyl)-N-[3-(trimethoxysilyl)propyl]propan-1-amine] | > 90 µM
CCCC(O)C(CC)CO (stereo not shown) [2-Ethyl-1,3-hexanediol] | > 90 µM
NC(=O)c1ccc([N+](=O)[O-])cc1Cl [2-Chloro-4-nitrobenzamide] | > 90 µM

SMILES | CC50 at 24 h
CC(=O)Nc1ccc(C)c(Cl)c1 [N-(3-Chloro-4-methylphenyl)acetamide] | > 90 µM
Oc1ccc(Cl)cc1 [4-Chlorophenol] | > 90 µM
O=C(O)COc1nn(Cc2ccccc2)c2ccccc12 [Bendazac sodium] | > 50 µM
CC(C)c1ccc(C(=O)NC(=N)N)cc1S(C)(=O)=O [Cariporide mesylate] | > 70 µM
CCCCCCCC(=O)OCCCCCC [Hexyl octanoate] | > 90 µM
O=C(O)Cc1cn(-c2ccccc2)nc1-c1ccc(Cl)cc1 [Lonazolac] | > 50 µM
Cc1ccccc1OCC(=O)O [(2-Methylphenoxy)acetic acid] | > 90 µM
O=C(O)c1ccc(S(=O)(=O)N(Cl)Cl)cc1 [Halazone] | > 90 µM
C[Si](C)(C)O[Si](O)(O)O [Trimethylsilyl silicate] | > 90 µM
Oc1cccc2ccccc12 [1-Naphthol] | > 90 µM
CC(C)(CCC(=O)O)C(=O)O [2,2-Dimethylpentanedioic acid] | > 90 µM
Nc1nc2[nH]cc(CCc3ccc(C(=O)N[C@@H](CCC(=O)O)C(=O)O)cc3)c2c(=O)[nH]1 [Pemetrexed disodium] | > 50 µM
CC1C2CC(CC2C2CCCC(O)C2)C1(C)C (stereo not shown) [3-(5,5,6-Trimethylbicyclo[2.2.1]hept-2-yl)cyclohexanol] | 54.6 µM
Cc1ncc(C[n+]2csc(CCOP(=O)(O)O)c2C)c(N)n1 [Monophosphothiamine] | > 50 µM
O=C(/C=C/c1ccc(O)c(O)c1)O[C@@H]1C[C@](OC(=O)/C=C/c2ccc(O)c(O)c2)(C(=O)O)C[C@@H](O)[C@H]1O [1,5-Dicaffeoylquinic acid] | > 50 µM
O=C(c1cc2ccccc2o1)N1CCN(Cc2ccccc2)CC1 [Befuraline] | > 50 µM
CNCC(O)c1ccc(OC(=O)C(C)(C)C)c(OC(=O)C(C)(C)C)c1 (stereo not shown) [Dipivefrin hydrochloride] | 10.3 µM
CCCCOCCOC(C)=O [2-Butoxyethyl acetate] | > 90 µM
O=C(/C=C/c1ccccc1)OCCc1ccccc1 [2-Phenylethyl 3-phenylprop-2-enoate] | > 90 µM
Nc1ccc(Cc2ccc(N)c(Cl)c2)cc1Cl [4,4'-Methylenebis(2-chloroaniline)] | 67.7 µM
C=Cc1ccc(C=C)cc1 [1,4-Divinylbenzene] | > 100 µM

same assay, conditions: rat, gh3-tre-luc cells, AC50 (uM) modified / 1000, Tox21_110001=Tox21_110766; viability, 1 nM T3 present, 24 h

SMILES | CC50 at 24 h
COc1ccc2c(c1)[C@]13CCCC[C@@H]1[C@H](C2)N(C)CC3 [Dextromethorphan hydrobromide monohydrate] | > 50 µM

same assay, conditions: rat, gh3-tre-luc cells, AC50 (uM) modified / 1000, Tox21_110001=Tox21_111239; viability, 1 nM T3 present, 24 h

SMILES | CC50 at 24 h
CC(C)NC(C)Cc1ccc(I)cc1 (stereo not shown) [Iofetamine hydrochloride] | > 50 µM

same assay, conditions: rat, gh3-tre-luc cells, AC50 (uM) modified / 1000, Tox21_110001=Tox21_111872; viability, 1 nM T3 present, 24 h

SMILES | CC50 at 24 h
CCN(C(C)=O)c1cccc(-c2ccnc3c(C#N)cnn23)c1 [Zaleplon] | > 50 µM

same assay, conditions: rat, gh3-tre-luc cells, AC50 (uM) modified / 1000, Tox21_110001=Tox21_113307; viability, 1 nM T3 present, 24 h

SMILES | CC50 at 24 h
CCCOC(=O)Cc1ccc(OCC(=O)N(CC)CC)c(OC)c1 [Propanidid] | > 50 µM

same assay, conditions: rat, gh3-tre-luc cells, AC50 (uM) modified / 1000, Tox21_110001=Tox21_200260; viability, 1 nM T3 present, 24 h

SMILES | CC50 at 24 h
Cc1ccc2cc(C)ccc2c1 [2,6-Dimethylnaphthalene] | > 90 µM

same assay, conditions: rat, gh3-tre-luc cells, AC50 (uM) modified / 1000, Tox21_110001=Tox21_201354; viability, 1 nM T3 present, 24 h

SMILES | CC50 at 24 h
C=C(C)C#N [Methacrylonitrile] | > 100 µM

same assay, conditions: rat, gh3-tre-luc cells, AC50 (uM) modified / 1000, Tox21_110001=Tox21_201627; viability, 1 nM T3 present, 24 h

SMILES | CC50 at 24 h
Nc1ccc(Cl)cc1 [4-Chloroaniline hydrochloride] | > 90 µM

same assay, conditions: rat, gh3-tre-luc cells, AC50 (uM) modified / 1000, Tox21_110001=Tox21_202343; viability, 1 nM T3 present, 24 h

SMILES | CC50 at 24 h
CCOP(=S)(OCC)SCCSCC [Disulfoton] | > 90 µM

same assay, conditions: rat, gh3-tre-luc cells, AC50 (uM) modified / 1000, Tox21_110001=Tox21_300608; viability, 1 nM T3 present, 24 h

SMILES | CC50 at 24 h
O=C(O)C(F)(F)C(F)(F)C(F)(F)C(F)(F)C(F)(F)C(F)(F)C(F)(F)C(F)(F)C(F)(F)F [Perfluorodecanoic acid] | > 90 µM

same assay, conditions: rat, gh3-tre-luc cells, AC50 (uM) modified / 1000, Tox21_110001=Tox21_300861; viability, 1 nM T3 present, 24 h

SMILES | CC50 at 24 h
CCOP(=S)(OCC)SCCSCC [Disulfoton] | > 40 µM

same assay, conditions: rat, gh3-tre-luc cells, AC50 (uM) modified / 1000, Tox21_110001=Tox21_301160; viability, 1 nM T3 present, 24 h

SMILES | CC50 at 24 h
CCOP(=S)(OCC)Oc1ccc(Cl)cc1Cl [Dichlofenthion] | > 90 µM

same assay, conditions: rat, gh3-tre-luc cells, AC50 (uM) modified / 1000, Tox21_110001=Tox21_301901; viability, 1 nM T3 present, 24 h

SMILES | CC50 at 24 h
CCCN(CCC)c1c([N+](=O)[O-])cc(S(C)(=O)=O)cc1[N+](=O)[O-] [Nitralin] | > 90 µM

same assay, conditions: rat, gh3-tre-luc cells, AC50 (uM) modified / 1000, Tox21_110001=Tox21_302358; viability, 1 nM T3 present, 24 h

SMILES | CC50 at 24 h
CN(C)N [1,1-Dimethylhydrazine] | > 90 µM

same assay, conditions: rat, gh3-tre-luc cells, AC50 (uM) modified / 1000, Tox21_110001=Tox21_303172; viability, 1 nM T3 present, 24 h

SMILES | CC50 at 24 h
C=C(C)C#N [Methacrylonitrile] | > 90 µM
